This is an account of results in ChEMBL document CHEMBL3865792, “Antioxidant and antitumor activity of trolox, trolox succinate, and α-tocopheryl succinate conjugates with nitroxides” (Eur J Med Chem, 2016).

Test system in one data set: not listed separately
The data set is described as follows: Cytotoxicity against human RPMI8226 cells assessed as reduction in cell viability after 72 hrs by MTT assay. Conditions: RPMI-8226, 72 h. The data set is classed as functional, cell-based.
Broadly, the IC50 is the point on the concentration scale where inhibition reaches its midpoint. Turning to `Cc1c(C)c2c(c(C)c1OC(=O)CCC(=O)O)CCC(C)(C(=O)O)O2` (configuration not stated), the IC50 came out at 63 µM.

Test system in a further data set: not listed separately
The data set is described as follows: Cytotoxicity against hamster AG17-1 cells assessed as reduction in cell viability after 72 hrs by MTT assay. The data set is classed as toxicity, cell-based, Cricetulus griseus. To be noted: Chinese hamster. On the technique in general: Tetrazolium dyes change colour on reduction, which living cells bring about.
Turning to `Cc1c(C)c2c(c(C)c1OC(=O)CCC(=O)O)CCC(C)(C(=O)O)O2` (configuration not stated), the IC50 at 72 h was above 300 µM.

Test system in another data set: not listed separately
Nature of the data set: Cytotoxicity against human CEM13 cells assessed as reduction in cell viability after 72 hrs by MTT assay. Conditions: CEM13, 72 h. The data set is classed as functional, cell-based.
For `Cc1c(C)c2c(c(C)c1OC(=O)CCC(=O)O)CCC(C)(C(=O)O)O2` (configuration not stated), the IC50 came out at 191 µM.

Another data set relates to Salmonella enterica subsp. enterica serovar Typhimurium. Nature of the data set: Antioxidant activity in Salmonella typhimurium TA102 harboring […] mutant assessed as inhibition of t-BuO2H-dependant mutant formation at 30 uM preincubated with compound followed by t-BuO2H addition after 48 hrs by Ames test. It is filed as functional.
Settings: not given
(In general: The Ames test detects mutagens through reverse mutation in bacteria.)
For orientation: inhibition means the relative decrease from the control value, in per cent. `Cc1c(C)c2c(c(C)c1OC(=O)CCC(=O)O)CCC(C)(C(=O)O)O2` (configuration not stated): the inhibition was found to be 35%.

For the next data set the test system is unchanged. Nature of the data set: Antioxidant activity in Salmonella typhimurium TA102 harboring […] mutant assessed as inhibition of t-BuO2H-dependant mutant formation at 0.3 uM preincubated with compound followed by t-BuO2H addition after 48 hrs by Ames test. The data set is classed as functional.
Settings: not given
With `Cc1c(C)c2c(c(C)c1OC(=O)CCC(=O)O)CCC(C)(C(=O)O)O2` (configuration not stated), the inhibition came to 35%.

Test system in a further data set: not listed separately
Nature of the data set: Cytotoxicity against human MCF7 cells assessed as reduction in cell viability at 300 uM after 72 hrs by MTT assay. The data set is classed as functional. To be noted: MCF7, 72 h.
Take `Cc1c(C)c2c(c(C)c1OC(=O)CCC(=O)O)CCC(C)(C(=O)O)O2` (configuration not stated): the inhibition at 300 µM was 15%.

Test system in a further data set: not listed separately
Nature of the data set: Cytotoxicity against hamster AG17-1 cells assessed as reduction in cell viability at 300 uM after 72 hrs by MTT assay. The data set is classed as toxicity, cell-based, Cricetulus griseus. To be noted: Chinese hamster, read-out: INH.
With `Cc1c(C)c2c(c(C)c1OC(=O)CCC(=O)O)CCC(C)(C(=O)O)O2` (configuration not stated), the cytotoxicity at 72 h, 300 µM came out at 27%.

Test system in another data set: not listed separately
Nature of the data set: Cytotoxicity against human HepG2 cells assessed as reduction in cell viability after 72 hrs by MTT assay. Conditions: HepG2, 72 h. The data set is classed as functional, cell-based.
Take `Cc1c(C)c2c(c(C)c1OC(=O)CCC(=O)O)CCC(C)(C(=O)O)O2` (configuration not stated): the IC50 is 242 µM.

A further data set concerns Salmonella enterica subsp. enterica serovar Typhimurium. Nature of the data set: Antioxidant activity in Salmonella typhimurium TA102 harboring […] mutant assessed as inhibition of t-BuO2H-dependant mutant formation at 3 uM preincubated with compound followed by t-BuO2H addition after 48 hrs by Ames test.
Settings: not given
The data set is classed as functional.
As for `Cc1c(C)c2c(c(C)c1OC(=O)CCC(=O)O)CCC(C)(C(=O)O)O2` (configuration not stated), the inhibition was found to be 35%.

Test system in another data set: not listed separately
Nature of the data set: Genotoxicity in Escherichia coli PQ37 expressing lacZ gene assessed as ratio of inducible beta-galactosidase activity to alkaline phosphatase activity at 30 mM after 2 hrs by SOS-chromotest relative to control. It is filed as toxicity. Conditions: Escherichia coli PQ37 cells expressing lacZ gene, read-out: FC.
In the case of `Cc1c(C)c2c(c(C)c1OC(=O)CCC(=O)O)CCC(C)(C(=O)O)O2` (configuration not stated), the fold induction at 2 h, 30000 µM worked out at 1.1.

Test system in another data set: not listed separately
Nature of the data set: Cytotoxicity against human MT4 cells assessed as reduction in cell viability at 300 uM after 72 hrs by MTT assay. It is filed as functional. To be noted: MT4, 72 h.
Take `Cc1c(C)c2c(c(C)c1OC(=O)CCC(=O)O)CCC(C)(C(=O)O)O2` (configuration not stated): the inhibition at 300 µM is 34%.

Test system in another data set: not listed separately
Nature of the data set: Cytotoxicity against mouse LMTK cells assessed as reduction in cell viability after 72 hrs by MTT assay.
Settings: not given
It is filed as toxicity.
Turning to `Cc1c(C)c2c(c(C)c1OC(=O)CCC(=O)O)CCC(C)(C(=O)O)O2` (configuration not stated), the IC50 at 72 h is above 300 µM.

Test system in a further data set: not listed separately
Nature of the data set: Cytotoxicity against human MCF7 cells assessed as reduction in cell viability after 72 hrs by MTT assay. It is filed as functional, cell-based. Conditions: MCF7, 72 h.
Turning to `Cc1c(C)c2c(c(C)c1OC(=O)CCC(=O)O)CCC(C)(C(=O)O)O2` (configuration not stated), the IC50 is above 300 µM.

Test system in another data set: not listed separately
The data set is described as follows: Cytotoxicity against mouse LMTK cells assessed as reduction in cell viability at 300 uM after 72 hrs by MTT assay. The data set is classed as toxicity. To be noted: read-out: INH.
Regarding `Cc1c(C)c2c(c(C)c1OC(=O)CCC(=O)O)CCC(C)(C(=O)O)O2` (configuration not stated), the cytotoxicity at 72 h, 300 µM turned out to be 7%.

The test system of the next data set is Salmonella typhimurium. The data set is described as follows: Genotoxicity in Salmonella typhimurium TA102 harboring […] mutant assessed as frequency of reversion from histidine auxotrophy to prototrophy at 30 mM after 48 hrs by Ames test (reference value: 209 +/- 10 No _unit). The data set is classed as toxicity, organism-based. Conditions: salmonella enterica subsp. enterica serovar typhimurium, 30000 µM.
As to `Cc1c(C)c2c(c(C)c1OC(=O)CCC(=O)O)CCC(C)(C(=O)O)O2` (configuration not stated), the Activity was found to be 216.

Test system in a further data set: not listed separately
Nature of the data set: Cytotoxicity against human MT4 cells assessed as reduction in cell viability after 72 hrs by MTT assay. The data set is classed as functional, cell-based. To be noted: MT4, 72 h.
For the compound `Cc1c(C)c2c(c(C)c1OC(=O)CCC(=O)O)CCC(C)(C(=O)O)O2` (configuration not stated), the IC50 was 285 µM.

Test system in a further data set: not listed separately
The data set is described as follows: Cytotoxicity against human U937 cells assessed as reduction in cell viability after 72 hrs by MTT assay. It is filed as functional, cell-based. Conditions: U-937, 72 h.
Turning to `Cc1c(C)c2c(c(C)c1OC(=O)CCC(=O)O)CCC(C)(C(=O)O)O2` (configuration not stated), the IC50 was 120 µM.
